Source: patent US20190071416A1, “COMPOUNDS FOR TREATMENT OF CANCER AND EPIGENETICS” (Agency For Science, Technology and Research, priority 2015, published 2019)
Like-named read-outs stand apart in the source and are kept apart here.

Tests used:
[1] = target: T1, SMYD3 (Homo sapiens, UniProt Q9H7B4); experiment: SMYD3 biochemical assay (MTase-Glo, MAP3K2 peptide substrate)
T1 sequence (Q9H7B4 1-428): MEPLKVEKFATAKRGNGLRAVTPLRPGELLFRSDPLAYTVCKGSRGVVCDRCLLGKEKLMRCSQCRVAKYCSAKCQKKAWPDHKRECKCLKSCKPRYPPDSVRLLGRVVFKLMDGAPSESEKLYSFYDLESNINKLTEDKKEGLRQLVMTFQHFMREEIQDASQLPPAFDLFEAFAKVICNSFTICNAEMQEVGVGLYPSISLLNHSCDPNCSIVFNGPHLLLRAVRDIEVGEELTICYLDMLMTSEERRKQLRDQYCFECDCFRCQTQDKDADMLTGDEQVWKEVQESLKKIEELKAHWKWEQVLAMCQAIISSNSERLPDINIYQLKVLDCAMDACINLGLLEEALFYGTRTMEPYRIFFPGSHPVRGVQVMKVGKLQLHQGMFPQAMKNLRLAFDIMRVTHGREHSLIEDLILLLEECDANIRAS
Method in brief: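 Luminescent readout of SAH production (coupled SAH→ATP conversion, MTase-Glo) after SMYD3 reacted 30 min at room temperature with 1.0 µM SAM and 10 µM MAP3K2 peptide, both final. Non-linear regression gave IC50 values.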

[2] = test system: Hep G2 cells; experiment: Soft agar colony formation assay; type: cell-based, human
Protocol: Hep G2 cells were purchased from ATCC. Hep G2 cells were maintained in Eagle's Minimum Essential Medium (Sigma, Cat No: #M0643) supplemented with 10% Fetal Bovine Serum (Hyclone, Cat No: SV30087.03), 2 mM L-glutamine, 100 units/mL penicillin and 100 μg/mL streptomycin (Life Technologies, Cat No: 10378-016). The soft agar assays were performed in concordance to the ETC approved method report for soft agar assay (ETC document number: RD0019). Briefly, 600 μL of 0.6% agar was added to 24-well plate (Corning, Cat No: 3738) to form the base layer. This is followed by the addition of 500 μL of 0.36% agar middle layer (containing 10′000Hep G2 cells). Lastly, 500 μL of fresh growth medium (containing the corresponding serially diluted compound) was added above the middle layer. The plates were incubated at 37° C. with 5% carbon dioxide in a humidified incubator for 1 to 2 weeks. 70 μL of thiazolyl blue tetrazolium bromide (5 mg/mL, Sigma Cat No: M5655) was added to each well and the plates were incubated at 37° C. for 2 h. Colonies were counted with GelCount® instrument (Oxford Optronix). The colony counts were plotted against compound concentrations using the Graphpad Prism software. In addition, the software was used to perform non-linear curve fitting and the calculation of IC50.

- IC50 ([1]; Table 1, MAP3K2 peptide as substrate, read-out: IC50): 59.5 nM
- IC50 ([1]; Table 2, read-out: Biochemical assay IC50): 59.5 nM
- IC50 ([1]; Table 3, MTase assay, MAP3K2 peptide substrate, read-out: IC50): 60 nM
- IC50 ([2]; Homo sapiens, HepG2, Hep G2, soft agar): 230 nM
SMILES: CCCOC(=O)N1CCN(C(=O)c2ccc3c(Cl)cc(-c4ccccc4)nc3c2)C[C@H]1C [B019, Propyl (R)-4-(4-chloro-2-phenylquinoline-7-carbonyl)-2-methylpiperazine-1-carboxylate]
- maximum inhibition ([2]; Hep G2, soft agar): 97.2%
- inhibition at 10 µM ([2]; Homo sapiens, HepG2, highest concentration tested (10 μM)): ~100%
